Like-named read-outs stand apart in the source and are kept apart here.
Target: T1, C3a receptor (C3aR) (Homo sapiens, UniProt Q16581)
T1 construct: peripheral blood mononuclear cells were isolated from buffy coat (obtained from Australian Red Cross Blood Service, Kelvin Grove); endogenous in cells; host or cells: primary human monocyte-derived macrophages (HMDM) differentiated from CD14+ monocytes of donor buffy coat
T1 sequence (Q16581 1-482): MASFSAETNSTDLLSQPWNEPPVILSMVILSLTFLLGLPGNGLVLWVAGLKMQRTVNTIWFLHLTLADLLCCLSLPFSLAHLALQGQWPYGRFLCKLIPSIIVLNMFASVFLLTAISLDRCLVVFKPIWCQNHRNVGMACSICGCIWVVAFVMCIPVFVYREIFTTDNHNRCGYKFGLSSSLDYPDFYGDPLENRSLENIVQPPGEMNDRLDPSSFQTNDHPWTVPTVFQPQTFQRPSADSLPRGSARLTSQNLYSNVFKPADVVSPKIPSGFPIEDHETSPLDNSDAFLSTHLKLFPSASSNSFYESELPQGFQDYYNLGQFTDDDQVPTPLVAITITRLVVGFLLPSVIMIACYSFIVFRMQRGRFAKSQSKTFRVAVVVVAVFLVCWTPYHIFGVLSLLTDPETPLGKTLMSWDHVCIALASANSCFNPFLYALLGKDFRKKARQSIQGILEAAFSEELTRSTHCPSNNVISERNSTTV
Assay: Competitive binding with [^125I]-C3a in HMDM
From the text: For HMDM, peripheral blood mononuclear cells were isolated from buffy coat (obtained from Australian Red Cross Blood Service, Kelvin Grove) using Ficoll-paque density centrifugation (GE Healthcare Bio-Science, Uppsala, Sweden). CD^14+ monocytes were positively selected using CD^14+ MACS magnetic beads (Miltenyi Biotech, Auburn, Calif., USA). […] Cells were harvested by gentle scraping in saline solution and replated for use on Day 7. […] Unbound radioactivity was removed by filtration through glass microfiber filters GF/B (Whatman Iner. […] The filter was washed 3 times with cold buffer (50 mM Tris-HCl) pH 7.4. […] The −log IC50 for each compound was calculated for separate experiments and express as an arithmetic mean standard error (SE). IC50 values were expressed as a geometric mean.

[1] = Table 6, competitive binding with [^125I]-C3a, HMDM, read-out: IC50 (converted)
[2] = Table 6, competitive binding with [^125I]-C3a, HMDM
[3] = Table 14, binding affinity for C3aR on HMDM, read-out: -Log IC50 (converted)

| Structure (SMILES) | IC50 [1] | pIC50 ± SEM [2] | IC50 [3] |
| --- | --- | --- | --- |
| CC[C@H](C)[C@H](NC(=O)c1ccc(C(=O)c2ccccc2)cc1)c1nc(C(=O)N[C@@H](CCCNC(=N)N)C(=O)O)co1 [Compound 12, 4-Benzoylbenzoic acid-Isoleucine-Oxazole-Arginine-OH] | 157 nM | 6.80 ± 0.15 | – |
| CC(C)C[C@H](NC(=O)[C@@H](C)c1ccc(N2Cc3ccccc3C2=O)cc1)c1nc(C(=O)N[C@@H](CCCNC(=N)N)C(=O)O)co1 [Compound 15, 2-(4-(1-oxoisoindolin-2-yl)phenyl)propanoic acid Leucine-Oxazole-Arginine-OH] | 451 nM | – | – |
| N=C(N)NCCC[C@H](NC(=O)c1cnc(C(c2ccccc2)c2ccccc2)s1)C(=O)O [Compound 78] | – | – | 3.98 nM |
| CC(C)C[C@H](NC(=O)OC(C)(C)C)c1nc(C(=O)N[C@@H](Cc2ccc(C(=N)NO)cc2)C(=O)O)co1 [Compound 84, (S)-2-(2-((S)-1-((tert-butoxycarbonyl)amino)-3-methylbutyl)oxazole-4-carboxamido)-3-(4-(N-hydroxycarbamimidoyl)phenyl)propanoic acid] | 76 nM | – | – |
| CC(C)C[C@H](NC(=O)OC(C)(C)C)c1nc(C(=O)N[C@@H](CCCNC(=N)N[N+](=O)[O-])C(=O)O)co1 [Compound 89, (S)-2-(2-((S)-1-((tert-butoxycarbonyl)amino)-3-methylbutyl)oxazole-4-carboxamido)-5-(3-nitroguanidino)pentanoic acid] | 129 nM | – | – |
| Cc1c(C(=O)N[C@@H](CCCNC(=N)N)C(=O)O)nc(C(c2ccccc2)c2ccccc2)n1C [Compound 97, 2-Benzhydryl-1,5-Dimethyl imidazole-4-carboxyl-Arginine] | 1140 nM | – | 1260 nM |

Second part, the compound after the results:

| IC50 [1] | pIC50 ± SEM [2] | IC50 [3] | Structure (SMILES) |
| --- | --- | --- | --- |
| 509 nM | – | – | CC(C)(C)OC(=O)N[C@@H](Cc1ccccc1)c1nc(C(=O)N[C@@H](CCCNC(=N)N)C(=O)O)co1 [Compound 3, Boc-L-Phenylalanine-Oxazole-Arg] |
| 2290 nM | – | – | CC(C)(C)OC(=O)N[C@@H](Cc1c[nH]c2ccccc12)c1nc(C(=O)N[C@@H](CCCNC(=N)N)C(=O)O)co1 [Compound 4, Boc-L-Tryptophan-Oxazole-Arg] |
| 800 nM | 6.10 ± 0.16 | – | CC[C@H](C)[C@H](NC(=O)c1ccc(N(C)C)cc1)c1nc(C(=O)N[C@@H](CCCNC(=N)N)C(=O)O)co1 [Compound 11, 4-(Dimethylamino)benzoic acid-Isoleucine-Oxazole-Arginine-OH] |
| 1030 nM | – | – | CC(C)Cc1ccc([C@H](C)C(=O)N[C@@H](CC(C)C)c2nc(C(=O)N[C@@H](CCCNC(=N)N)C(=O)O)co2)cc1 [Compound 14, 2-(4-isobutylphenyl)propanoic acid Leucine-Oxazole-Arginine-OH] |
| 142 nM | 6.85 ± 0.15 | – | CC(C)C[C@H](NC(=O)C1c2ccccc2-c2ccccc21)c1nc(C(=O)N[C@@H](CCCNC(=N)N)C(=O)O)co1 [Compound 17, 9-Fluorenecarboxylic acid-Leu-Oxazole-Arginine-OH] |
| 1220 nM | – | – | CC(C)C[C@H](NC(=O)OC(C)(C)C)c1nnc(C(=O)N[C@@H](CCCNC(=N)N)C(=O)O)o1 [Compound 83, Boc-Leucine-1-oxa-3,4-diazole-Arginine-OH] |
